Experimental data from PubChem BioAssay (NCI).
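Tested at 5 concentrations; 48 h exposure; 96-well plates; endpoints linearly interpolated, else capped at highest concentration. The concentration for full growth arrest is given as TGI.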

Key:
Experiment in all cases: NCI anticancer screen, dose series, 48 h
A498 renal = test system: A498 renal
DLD-1 colon = test system: DLD-1 colon
HCC-2998 colon = test system: HCC-2998 colon
HL-60(TB) leukemia = test system: HL-60(TB) leukemia
HOP-62 NSCLC = test system: HOP-62 NSCLC
KM20L2 colon = test system: KM20L2 colon
M19-MEL melanoma = test system: M19-MEL melanoma
NCI-H23 lung = test system: NCI-H23 lung
OVCAR-5 ovarian = test system: OVCAR-5 ovarian
SF-268 CNS = test system: SF-268 CNS
SF-295 CNS = test system: SF-295 CNS
SK-MEL-28 melanoma = test system: SK-MEL-28 melanoma
SN12C renal = test system: SN12C renal
SNB-75 CNS = test system: SNB-75 CNS
SW-620 colon = test system: SW-620 colon
TK-10 renal = test system: TK-10 renal
U251 CNS = test system: U251 CNS
MCF7 breast = test system: MCF7 breast
NCI/ADR-RES ovarian = test system: NCI/ADR-RES ovarian
T-47D breast = test system: T-47D breast

Row | Compound | TGI (A498 renal) | TGI (DLD-1 colon) | TGI (HCC-2998 colon) | TGI (HL-60(TB) leukemia) | TGI (HOP-62 NSCLC) | TGI (KM20L2 colon) | TGI (M19-MEL melanoma) | TGI (NCI-H23 lung) | TGI (OVCAR-5 ovarian) | TGI (SF-268 CNS) | TGI (SF-295 CNS) | TGI (SK-MEL-28 melanoma) | TGI (SN12C renal) | TGI (SNB-75 CNS) | TGI (SW-620 colon) | TGI (TK-10 renal) | TGI (U251 CNS) | TGI (MCF7 breast) | TGI (NCI/ADR-RES ovarian) | TGI (T-47D breast)
1 | CC(=O)NNc1nc(C)c(C(=O)NNC(=O)C(=O)Nc2c(C)cccc2C(C)(C)C)s1 | > 100 µM | > 100 µM | > 100 µM | > 100 µM | > 100 µM | > 100 µM | > 100 µM | > 100 µM | > 100 µM | > 100 µM | > 100 µM | > 100 µM | > 100 µM | > 100 µM | > 100 µM | > 100 µM | > 100 µM | – | – | –
2 | COC(=O)C1=C(C)N2CCOC2CC1c1ccccc1 (stereo unspecified) | – | > 100 µM | > 100 µM | > 100 µM | > 100 µM | > 100 µM | > 100 µM | > 100 µM | – | > 100 µM | > 100 µM | > 100 µM | – | > 100 µM | > 100 µM | > 100 µM | – | – | – | –
3 | CN(C)CCN(C(=Nc1ccccc1)N1CCCC1)c1ccccc1 | – | – | – | > 100 µM | > 100 µM | – | – | > 100 µM | > 100 µM | > 100 µM | > 100 µM | > 100 µM | > 100 µM | > 100 µM | > 100 µM | > 100 µM | > 100 µM | > 100 µM | > 100 µM | > 100 µM
4 | Cc1ccc(S(=O)(=O)NNC2Oc3cc4c(cc3C(c3ccccc3O)C2C)OCO4)cc1 (stereo unspecified) | 30.7 µM | – | 32.6 µM | 40.8 µM | 29.6 µM | – | – | 33 µM | 30.5 µM | 28.5 µM | 24.4 µM | 30.1 µM | 30.5 µM | 23.3 µM | 29.7 µM | 31.3 µM | 22 µM | 35.2 µM | – | 25.6 µM
5 | Cc1ccc(S(=O)(=O)NCCCSCCSCCCN)cc1 | > 100 µM | – | > 100 µM | > 100 µM | – | – | – | > 100 µM | – | > 100 µM | > 100 µM | > 100 µM | > 100 µM | > 100 µM | > 100 µM | > 100 µM | > 100 µM | > 100 µM | > 100 µM | > 100 µM
6 | COc1cc(C(=O)Nc2cc(C(N)=O)cc(OC)c2OC)cc(NC(=O)/C=C/c2ccccc2)c1OC | – | – | – | > 100 µM | – | – | – | > 100 µM | > 100 µM | – | > 100 µM | > 100 µM | 85.6 µM | – | > 100 µM | > 100 µM | – | > 100 µM | > 100 µM | –
